Results reported in patent US5476933A, “Azepine synthesis via a diels-alder reaction” (priority 1994, dated 1995).
Read-outs that look alike come from different tables or passages of the source.

Experiments:
[1] = molecular target: T1, glycine binding site of the NMDA receptor (Rattus norvegicus, UniProt P35439); assay: 1 μM glycine-stimulated [3H]-MK-801 binding, rat brain membrane homogenates; conditions: for IC50: rat brain homogenates, [3H]-MK-801 binding, 1 μM glycine; for activity (glycine receptor antagonism), in words: structure-activity statements
T1 construct: rat brain membrane homogenates which are enriched in NMDA receptors; tissue Pel-Freez, Rogers, Ark; host or cells: whole rat brain, washed membrane homogenate
Experimental: ^a Experiments described herein utilizing rat brain homogenates and a
The assay is conducted using rat brain membrane homogenates which are enriched in NMDA receptors. The membranes are prepared as follows. Frozen rat brains (obtained from Pel-Freez, Rogers, Ark.) are homogenized in 15 volumes (w/v) of ice cold 0.32M sucrose. The homogenate is spun at 1,000×g for ten minutes. The supernatant is collected and spun for 20 minutes at 44,000×g. The pellet is suspended in 15 volumes of water (relative to original brain weight). The homogenate is again spun at 44,000×g for twenty minutes. The pellet is resuspended in 5 volumes of water and the suspension is freeze-thawed 2 times. After the final thaw cycle, the suspension is brought to 15 volumes with water and spun at 44,000×g for twenty minutes. The pellet is resuspended in 5 volumes of ice-cold 10 mM HEPES, and is titrated to pH 7.4 with KOH containing 0.04% Triton X-100. Membranes are incubated with the Triton/HEPES buffer at 37° C. for 15 minutes. The volume is then brought to 15 with ice-cold 10 mM HEPES, pH 7.4, and spun/washed three times with spins of 44,000×g between washes. The final pellet is suspended in three volumes of 50 mM HEPES, pH 7.4 and the protein concentration is determined with a standard dye-binding protein assay (Bio-Rad, Richmond, Calif.). The suspension is stored at -80° C. until used. Only HPLC grade water is used for all buffers and suspensions/washings. The extensive washings are necessary to remove as much endogenous glycine from the membrane preparation as possible.
Nonspecific binding is defined as the […] presence of PCP (final concentration: 100 μM). […] A 500 nM concentration (final) of 5,7-dichlorokynurenic (DCK) acid is added to all assay tubes. This concentration of the glycine antagonist DCK "buffers" most of the residual endogenous glycine that is not removed by the extensive washing steps that are carried out during the membrane preparation procedure.
The assays are incubated for 120 minutes at room temperature after which time the membrane-bound radioactivity is isolated from the free radioactivity by vacuum filtration through Whatman glass fiber filters that had been pretreated with 0.3% polyethyleneimine. Filtration is accomplished using a Brandel 48 well cell harvester. Filtered membranes are washed three times with 3 mL each of ice cold buffer. Filters are transferred to scintillation vials and 5 mL of scintillation cocktail is added. The vials are shaken overnight and the radioactivity is counted by liquid scintillation spectroscopy. The assays are done in triplicate and all experiments are conducted at least three times.
Inhibition dose response curves are constructed using increasing concentrations of glycine antagonists from 5 nM to 330 μM.
After constructing inhibition dose response curves and determination of glycine reversibility, Ki values for the glycine antagonists are calculated using the Cheng and Prusoff equation employing the experimentally determined IC50 values, the known concentration of glycine in the assay (1 μM) and the known affinity of glycine for the glycine binding site of the NMDA receptor (100 nM).
Binding Assays and In Vivo Studies.

[2] = molecular target: strychnine insensitive glycine site associated with the NMDA receptor complex; conditions: Swartz et al., cited from earlier work; for Kb: Mol. Pharmacol. 41:1130-1141 (1992), footnote d
glycine/NMDA receptor = molecular target: T2, glycine/NMDA receptor (Rattus norvegicus, UniProt P35439); assay: electrophysiology using Xenopus oocytes; type: cell-based
T2 construct: expressed in transfected cells; host or cells: Xenopus oocytes (RNA injected)

male Swiss/Webster mice = assay: maximum electroshock-induced seizure (MES) assay; type: in vivo, mouse; conditions: anticonvulsant, MES in mice; for ED50: Mus musculus, iv
Experimental: The anticonvulsant activity of the glycine antagonists may be assessed in the maximum electroshock-induced seizure (MES) assay in mice. […] The seizure stimulus parameters are 50 mA, 60 Hz, rectangular pulse, width 0.8 msec, duration 200 msec. Tonic hind limb extension observed after application of the electrical stimulus is recorded as occurrence of seizure.

guinea pig ileum = guinea pig ileum contraction; footnote c; cited from earlier work
[3] = molecular target: strychnine insensitive glycine site associated with the NMDA receptor complex; conditions: rat brain homogenates, [3H]-glycine binding; footnote b; cited from earlier work
pigeons = conditions: literature; cited from earlier work
rodents = conditions: literature; cited from earlier work
[4] = test system: neurons in brain ischemia; conditions: literature; cited from earlier work
[5] = molecular target: glycine binding site of the NMDA receptor; conditions: cited from earlier work; for affinity / antagonism at the glycine binding site, in words: literature
[6] = literature; cited from earlier work
[7] = crossing of the blood/brain barrier; conditions: inferred from Ki and MES ED50
[8] = from electrophysiology using Xenopus oocytes unless otherwise noted, read-out: Ki

SMILES: Cc1ccc2c(=O)cc(O)c(=O)[nH]c2c1 [Compound 3]
- IC50 ([1]; read-out: IC50): 3400 nM
- activity (glycine receptor antagonism), in words [1]: enhanced activity
- Kb [2]: 470 nM
- antagonism, in words [2]: antagonists at the strychnine insensitive glycine site

SMILES: O=c1cc(O)c(=O)[nH]c2c1CC(Cl)C(Cl)C2 (stereo not shown) [Compound 74, 3-Hydroxy-7,8-dichloro-6,7,8,9-tetrahydro-1H-1-benzazepine-2,5-dione]
- Ki (glycine/NMDA receptor; [8]): 30 nM
- ED50 (male Swiss/Webster mice): 30 mg/kg
- IC50 ([1]; read-out: IC50): 3600 nM

SMILES: O=c1[nH]c2cc(Cl)ccc2c(=O)cc1O [Compound 6]
- IC50 ([1]; read-out: IC50): 2500 nM
- activity (glycine receptor antagonism), in words [1]: enhanced activity
- IC50 (guinea pig ileum): 110 nM
- IC50 [3]: 30 nM

SMILES: c1ccc(C2(N3CCCCC3)CCCCC2)cc1 [PCP, phencyclidine]
- katalepsy, in words (pigeons): characteristic katalepsy in pigeons
- PCP-like behavioral effects, in words (rodents): behavioral excitation (hyperlocomotion)
- neuroprotective efficacy, in words [4]: neuroprotective efficacy both in vitro and in vivo

SMILES: Cc1cccc2[nH]c(=O)c(O)cc(=O)c12 [Compound 93, 3-Hydroxy-6-methyl-1H-1-benzazepine-2,5-dione]
- IC50 ([1]; read-out: IC50): 196000 nM

SMILES: [N-]=[N+]=Nc1ccc2[nH]c(=O)c(O)cc(=O)c2c1 [Compound 14]
- IC50 [1]: Inactive

SMILES: O=c1[nH]c2ccc(Br)cc2c(=O)cc1O [Compound 15]
- IC50 [1]: Inactive

SMILES: NCC(=O)O [glycine]
- Kd ([5]; used in Cheng and Prusoff equation, read-out: known affinity of glycine for the glycine binding site of the NMDA receptor): 100 nM

SMILES: Cc1cccc2c(=O)cc(O)c(=O)[nH]c12 [Compound 43, 3-Hydroxy-9-methyl-1H-1-benzazepine-2,5-dione]
- IC50 [1]: inactive

SMILES: O=c1[nH]c2ccccc2c(=O)cc1O [Compound 1, 3-hydroxy-1H-1-benzazepine-2,5-dione]
- IC50 ([1]; read-out: IC50): 7800 nM
- Kb [2]: 3000 nM
- antagonism, in words [2]: antagonists at the strychnine insensitive glycine site

SMILES: CC1c2c([nH]c(=O)c(O)cc2=O)CC(Cl)C1Cl (stereo not shown) [Compound 112, 7,8-dichloro-3-hydroxy-6-methyl-6,7,8,9-tetrahydro,1H-1-benzazepine-2,5-dione]
- Ki (glycine/NMDA receptor; [8]): 7 nM
- IC50 ([1]; read-out: IC50): 380 nM

SMILES: O=C(O)C1CC2CC(CP(=O)(O)O)CCC2CN1 (stereo not shown) [LY274614]
- neuroprotective efficacy, in words [4]: neuroprotective efficacy

SMILES: CC(=O)Nc1ccc2[nH]c(=O)c(O)cc(=O)c2c1 [Compound 12]
- IC50 ([1]; read-out: IC50): 92500 nM

SMILES: O=c1[nH]c2cc(Br)ccc2c(=O)cc1O [Compound 7]
- IC50 ([1]; read-out: IC50): 1300 nM
- activity (glycine receptor antagonism), in words [1]: enhanced activity
- IC50 (guinea pig ileum): 1000 nM
- IC50 [3]: 97 nM

SMILES: Cc1cc2[nH]c(=O)c(O)cc(=O)c2cc1C [Compound 46, 3-Hydroxy-7,8-dimethyl-1-benzazepine-2,5-dione]
- IC50 ([1]; read-out: IC50): 7300 nM

SMILES: O=C(O)c1cc2ccccc2[nH]1 [indole-2-carboxylic acid]
- affinity / antagonism at the glycine binding site, in words [5]: relatively high receptor binding affinity in vitro
- blood/brain barrier penetration, in words [6]: cannot penetrate the blood/brain barrier

SMILES: O=C(Nc1ccc2[nH]c(=O)c(O)cc(=O)c2c1)C(F)(F)F [Compound 13]
- IC50 [1]: Inactive

SMILES: Cc1ccc2[nH]c(=O)c(O)cc(=O)c2c1C [Compound 109, 6,7-dimethyl-3-hydroxy-1H-1-benzazepine-2,5-dione]
- IC50 [1]: inactive

SMILES: O=c1cc(O)c(=O)[nH]c2c1CCCC2 [Compound 61, 3-Hydroxy-6,7,8,9-tetrahydro-1H-1-benzazepine-2,5-dione]
- Ki (glycine/NMDA receptor; [8]): 1650 nM
- ED50 (male Swiss/Webster mice): 8 mg/kg
- IC50 ([1]; read-out: IC50): 34000 nM
- crossing the blood-brain-barrier, relative to 6,7-dichloro-5-nitro-1,4-dihydroquinoxaline-2,3-dione [7]: about 100 times

SMILES: CC1Cc2[nH]c(=O)c(O)cc(=O)c2CC1C (stereo not shown) [Compound 81, 7,8-dimethyl-3-hydroxy-6,7,8,9-tetrahydro-1H-1-benzazepine-2,5-dione]
- Ki (glycine/NMDA receptor; [8]): 177 nM
- ED50 (male Swiss/Webster mice): 6 mg/kg
- IC50 ([1]; read-out: IC50): 9280 nM

SMILES: Cc1cc(C)c2c(=O)cc(O)c(=O)[nH]c2c1 [Compound 97, 6,8-Dimethyl-3-hydroxy-1H-1-benzazepine-2,5-dione]
- IC50 ([1]; read-out: IC50): 26000 nM

SMILES: Cc1cc(C)c2[nH]c(=O)c(O)cc(=O)c2c1 [Compound 44, 3-Hydroxy-7,9-dimethyl-1H-1-benzazepine-2,5-dione]
- IC50 [1]: inactive

SMILES: Cc1cc2[nH]c(=O)c(O)cc(=O)c2c(C)c1[N+](=O)[O-] [Compound 99, 6,8-Dimethyl-3-hydroxy-7-nitro-1H-1-benzazepine-2,5-dione]
- IC50 ([1]; read-out: IC50): 69500 nM

SMILES: O=C(O)[C@@H]1C[C@H](CP(=O)(O)O)CCN1 [CGS 19755]
- PCP-like behavioral effects, in words (rodents): adverse PCP-like behavioral side effects
- neuroprotective efficacy, in words [4]: neuroprotective efficacy

SMILES: O=c1[nH]c2ccc([N+](=O)[O-])cc2c(=O)cc1O [Compound 11]
- IC50 ([1]; read-out: IC50): 300000 nM

SMILES: Cc1ccc2[nH]c(=O)c(O)cc(=O)c2c1 [Compound 2]
- Kb [2]: 9500 nM
- antagonism, in words [2]: antagonists at the strychnine insensitive glycine site

SMILES: O=c1cc(O)c(=O)[nH]c2c1C1CCC2C1 (stereo not shown) [Compound 70, 3-hydroxy-6,9-methano-6,7,8,9-tetrahydro-1H-1-benzazepine-2,5-dione]
- Ki ([1]; from binding assays (footnote d of Table 2)): 760 nM
- IC50 ([1]; read-out: IC50): 8400 nM

SMILES: Cc1ccc(C)c2c(=O)cc(O)c(=O)[nH]c12 [Compound 45, 3-Hydroxy-6,9-dimethyl-1H-1-benzazepine-2,5-dione]
- IC50 [1]: inactive

SMILES: O=C(O)c1cc(O)c2ccc(Cl)cc2n1 [7-Cl-kynurenic acid]
- affinity / antagonism at the glycine binding site, in words [5]: relatively high receptor binding affinity in vitro
- blood/brain barrier penetration, in words [6]: cannot penetrate the blood/brain barrier

SMILES: O=c1cc(O)c(=O)[nH]c2c1C1CCC2CC1 [Compound 87, 6,9-Ethano-3-hydroxy-6,7,8,9-tetrahydro-1H-1-benzazepine-2,5-dione]
- Ki (glycine/NMDA receptor; [8]): 332 nM
- ED50 (male Swiss/Webster mice): 8 mg/kg
- IC50 ([1]; read-out: IC50): 6700 nM

SMILES: O=C(O)c1cc(O)c2c(Cl)cc(Cl)cc2n1 [5,7-dichlorokynurenic acid (DCK), 5,7-dichlorokynurenic acid]
- affinity / antagonism at the glycine binding site, in words [5]: relatively high receptor binding affinity in vitro

SMILES: NC1CCN(O)C1=O (stereo not shown) [HA-966]
- affinity / antagonism at the glycine binding site, in words [5]: partial agonist with micromolar affinity for the glycine binding site
- blood/brain barrier penetration, in words [6]: sufficiently penetrates the blood/brain barrier

SMILES: O=c1[nH]c2cc(F)ccc2c(=O)cc1O [Compound 5]
- IC50 ([1]; read-out: IC50): 1700 nM
- activity (glycine receptor antagonism), in words [1]: enhanced activity

SMILES: O=c1[nH]c2cc(Cl)c(Cl)c([N+](=O)[O-])c2[nH]c1=O [6,7-dichloro-5-nitro-1,4-dihydroquinoxaline-2,3-dione]
- Ki (glycine/NMDA receptor): 3.3 nM
- ED50 (MES) (male Swiss/Webster mice): 4 to 5 mg/kg

SMILES: O=c1[nH]c2cc(C(F)(F)F)ccc2c(=O)cc1O [Compound 16]
- IC50 ([1]; read-out: IC50): 3400 nM
- activity (glycine receptor antagonism), in words [1]: enhanced activity
